In US6344206B1, “Combination of a retinoid with a polyamine polymer” (L'Oreal, priority 1997, dated 2002):

Assay: Test of stability of all-trans-retinol in ethanol during preservation at 50° C. (residual retinol by HPLC)
Format: physicochemical
Settings: retinol 0.3% w/v in ethanol without stabilizer, 20 days of storage at 50° C., aerobic medium
Procedure: The stability of a retinoid is defined in accordance with the present invention by the percentage of retinoid which remains in its original form after the composition containing the retinoid has been stored for a given period and at a given temperature.
The study conditions are the following:
PEI at 0.25, 0.5 and 1% (by weight/volume) in ethanol;
All-trans-retinol marketed by Fluka at 0.3% (by weight/volume) in ethanol;
Aerobic medium with 55 vol % air and 45 vol % ethanol;
Preservation at 50° C. in an oven;
The level of residual retinol after one month of preservation at 50° C. in an aerobic medium (55% of volume of air) is monitored by HPLC (on a Spherisorb ODS1 C18 column) by elution with an H2O/CH3CO2H/CH3CO2NH4/acetonitrile:
The level of residual retinol after two months of storage at 50° C. in an aerobic medium (55 vol % air) is monitored by HPLC (same conditions as in Test 1).
The level of residual retinol after one month of storage at 50° C. in an aerobic medium (55 vol % air) is monitored by HPLC (same conditions as in Test 1).
From an alcoholic solution of retinol at 0.26%, the level of residual retinol after several days of storage of the formulae at 50° C. in aerobic medium (55 vol % of air) is monitored by HPLC. […]

For `CC1=C(/C=C/C(C)=C/C=C/C(C)=C/CO)C(C)(C)CCC1` [retinol, All-trans-retinol], which Degradation of retinol is on record?
The Degradation of retinol was roughly 99%.
